Assay results reported in paper PMC2997884 (Molecular pharmaceutics, 2010).
Where two headings read alike, the source gives them in different places. Where a SMILES comes first, the peptide text is derived from it. [ ]: non-standard residue; d: D form. The star is where a group is joined. ξ: configuration not given here. pNA = O=[N+]([O-])c1ccc(N*)cc1; ξP = O=C(O)C1CCCN1

Legend:
chymotrypsin = conditions: N-acetyltryptophanyl-X substrates of chymotrypsin; ref Bender and Kezdy[14]; cited from earlier work
hVACVase [1] = target: T1, hVACVase (Homo sapiens, UniProt Q86WA6); conditions: cited from earlier work; for specific activity: hVACVase substrate; for Km / Vmax: hVACVase
T1 sequence (Q86WA6 38-291): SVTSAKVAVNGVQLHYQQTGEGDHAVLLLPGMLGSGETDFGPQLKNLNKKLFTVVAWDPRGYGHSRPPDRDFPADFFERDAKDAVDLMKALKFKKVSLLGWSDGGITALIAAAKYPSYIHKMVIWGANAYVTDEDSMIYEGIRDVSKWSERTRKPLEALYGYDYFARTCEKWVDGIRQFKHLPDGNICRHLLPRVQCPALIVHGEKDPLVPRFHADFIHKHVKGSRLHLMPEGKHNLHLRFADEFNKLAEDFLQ

[2] = Hydrolysis in pH 7.4 HEPES buffer; type: physicochemical; conditions: for t1/2 (estimated half-life): pH 7.4 HEPES buffer, 37 °C, mean ± SEM, esters n=3, Val-3-APG n=1 (up to 800 h)
hVACVase [3] = target: T1, hVACVase; conditions: hVACVase-mediated hydrolysis; previously published; ref Sun et al.[12]; cited from earlier work
hVACVase [4] = target: T1, hVACVase; test: hVACVase-mediated hydrolysis; conditions: 50 mM HEPES pH 7.4, 37°C, 6×His-tagged hVACVase for Val-3-APG; for kcat: calculated from Vmax/[enzyme]0; for Km / Vmax: mean ± SEM, Phe-OMe n=2, others n=3

In the case of `CC(=O)N[C@@H](Cc1c[nH]c2ccccc12)C(N)=O` [-NH2], the Km (chymotrypsin) is given as 5000 µM and the kcat (chymotrypsin) is given as 0.0006 s⁻¹.
In the case of `CCOC(=O)[C@H](Cc1c[nH]c2ccccc12)NC(C)=O` [-OEt], the Km (chymotrypsin) is listed as 97 µM and the kcat (chymotrypsin) is listed as 0.448 s⁻¹.
For `COC(=O)[C@H](Cc1c[nH]c2ccccc12)NC(C)=O` [-OMe], the Km (chymotrypsin) is listed as 95 µM and the kcat (chymotrypsin) is listed as 0.462 s⁻¹.
In the case of `CC(=O)N[C@@H](Cc1c[nH]c2ccccc12)C(=O)Oc1ccc([N+](=O)[O-])cc1` [-OPNP], the Km (chymotrypsin) is given as 2 µM and the kcat (chymotrypsin) is given as 0.508 s⁻¹.
For `NCC(=O)N1CCCC1C(=O)Nc1ccc([N+](=O)[O-])cc1` (stereo not drawn) [Gly-Pro-p-NA] (H-Gly-[ξP]-pNA), the “hydrolytic activity of hVACVase toward amides” value (shortened to “hydrolytic activity”) (hVACVase [1]) is given as “does not exhibit significant hydrolytic activity”.
In the case of `CC(C)C[C@H](N)C(=O)Nc1ccc([N+](=O)[O-])cc1` [Leu-p-NA], the “hydrolytic activity” value (hVACVase [1]) is listed as “does not exhibit significant hydrolytic activity”.
For `NCCCC[C@H](N)C(=O)Nc1ccc([N+](=O)[O-])cc1` [Lys-p-NA], the “hydrolytic activity” value (hVACVase [1]) is listed as “does not exhibit significant hydrolytic activity”.
In the case of `N=C(N)Nc1cccc(COC(=O)[C@@H](N)Cc2ccccc2)c1` [Phe-3-HPG], the “t1/2 (estimated half-life)” value [2] is given as 3.833 ± 0.108 h, the Km (hVACVase [3]) is given as 207 ± 16 µM and the Vmax (hVACVase [3]) is given as 718 ± 16 nmol/min/µg. The kcat (hVACVase [3]) was 345 ± 8 s⁻¹.
For `Cl.N[C@@H](Cc1ccccc1)C(=O)OCc1ccccc1` [Phe-OBn, L-phenylalanine benzyl ester hydrochloride], the “t1/2 (estimated half-life)” value [2] is given as 6.083 ± 0.157 h, the specific activity (hVACVase [1]) is given as 358.3 units/mg and the kcat (hVACVase [4]) is given as 395 ± 26 s⁻¹. For the same compound, the Km (hVACVase [4]) was 99 ± 26 µM and the Vmax (hVACVase [4]) was 822 ± 54 nmol/min/µg.
In the case of `CCOC(=O)[C@@H](N)Cc1ccccc1.Cl` [Phe-OEt, L-phenylalanine ethyl ester hydrochloride], the “t1/2 (estimated half-life)” value [2] is given as 16.773 ± 0.433 h, the specific activity (hVACVase [1]) is given as 75.3 units/mg and the kcat (hVACVase [4]) is given as 93 ± 4 s⁻¹. For the same compound, the Km (hVACVase [4]) was 6700 ± 560 µM and the Vmax (hVACVase [4]) was 193 ± 8 nmol/min/µg.
In the case of `N[C@@H](Cc1ccccc1)C(=O)Nc1ccc([N+](=O)[O-])cc1` [Phe-p-NA], the “hydrolytic activity” value (hVACVase [1]) is given as “does not exhibit significant hydrolytic activity”.
For `O=C(Nc1ccc([N+](=O)[O-])cc1)[C@@H]1CCCN1` [Pro-p-NA], the “hydrolytic activity” value (hVACVase [1]) is given as “does not exhibit significant hydrolytic activity”.
In the case of `CC(C)C(N)C(=O)OCc1cccc(NC(=N)N)c1` (stereo not shown) [Val-3-HPG], the “t1/2 (estimated half-life)” value [2] is given as 8.115 ± 0.11 h, the Km (hVACVase [3]) is given as 46 ± 5 µM and the Vmax (hVACVase [3]) is given as 321 ± 9 nmol/min/µg. For the same compound, the kcat (hVACVase [3]) was 154 ± 4 s⁻¹.
With `CC(C)[C@H](N)C(=O)OCc1ccccc1.Cl` [Val-OBn, L-valine benzyl ester hydrochloride] the “t1/2 (estimated half-life)” value [2] was 14.3 ± 0.127 h, the kcat (hVACVase [4]) was 60 ± 3 s⁻¹ and the Km (hVACVase [4]) was 60 ± 15 µM. The Vmax (hVACVase [4]) was 125 ± 7 nmol/min/µg.
In the case of `CC(C)[C@H](N)C(=O)Nc1ccc([N+](=O)[O-])cc1` [Val-p-NA], the “hydrolytic activity” value (hVACVase [1]) is given as “does not exhibit significant hydrolytic activity”.
In the case of `CC(C)(C)OC(=O)[C@@H](N)Cc1ccccc1` [phenylalanine t-butyl ester], the “hVACVase substrate or not” value (hVACVase [1]) is listed as “not a substrate”.
In the case of `CC(C)[C@H](N)C(=O)OCCOCn1cnc2c(=O)[nH]c(N)nc21` [valacyclovir], the half-life ([2]; HEPES buffer, pH 7.4) is given as 12.37 ± 0.0917 h, the Km (hVACVase [3]) is given as 68 ± 4 µM and the Vmax (hVACVase [3]) is given as 120 ± 2 nmol/min/µg. The kcat (hVACVase [3]) was 58 ± 1 s⁻¹ and the Km (hVACVase [1]) was 190 µM.
For `CC(C)[C@H](N)C(=O)OCC(CO)OCn1cnc2c(=O)nc(N)[nH]c21` (stereo partly shown) [valganciclovir], the Km (hVACVase [1]) is given as 1900 µM.
In the case of `CC(C)C(N)C(=O)OC1CC(n2cc(F)c(=O)[nH]c2=O)OC1CO` (stereo not shown) [valine 3’-floxuridine ester], the Vmax (hVACVase [1]) is given as 33 nmol/min/µg.
In the case of `CC(C)C(N)C(=O)OCC1OC(n2cc(F)c(=O)[nH]c2=O)CC1O` (stereo not shown) [valine 5’-floxuridine], the Vmax (hVACVase [1]) is listed as 148 nmol/min/µg.
In the case of `Br.CC(C)[C@H](N)C(=O)OCc1ccc([N+](=O)[O-])cc1` [valine p-nitrobenzyl ester, L-Valine p-nitrobenzyl ester hydrobromide], the “t1/2 (estimated half-life)” value [2] is reported as 6.872 ± 0.198 h, the kcat (hVACVase [4]) is reported as 130 ± 2 s⁻¹ and the Km (hVACVase [4]) is reported as 14 ± 1 µM. It also gave a Vmax (hVACVase [4]) of 272 ± 3 nmol/min/µg.
